Data set [1] is described as follows: Pharmacokinetics following oral administration to rats. Format: in vivo, male Sprague Dawley rats. Conditions: rat, oral 50 mg/kg in 0.5% CMC; for Brain AUC_D_obs / Brain Cmax_D / Plasma AUC_D_obs / Plasma Cmax_D: dose-normalized. How it is done:
Adult male Sprague Dawley rats (275-325 g, Charles River Laboratories, Saint Constant, Quebec) were orally dosed with 50 mg/kg of test compound (Apo7323, Apo7433, Apo7435 or Apo7448) suspended in 0.5% carboxymethylcellulose (CMC) in water. For each test compound, samples were obtained from the plasma and brain of three animals per time point, at 0 (dosed with 0.5% CMC), 0.25, 0.5, 1, 2, 4, 8 and 12 h following administration. The concentration of the compound in rat plasma and brain samples was determined by HPLC-UV. Pharmacokinetic parameters were computed using the PKPlus Module in GastroPlus® ver. 8.0 (Simulations Plus Inc., Lancaster, Calif.). Calculation method: linear trapezoidal with linear interpolation.

A short description of data set [2]: Stepwise formation constants for Cu-ligand system by potentiometric titration. Format: physicochemical. Conditions: for pCu^2+: pH 7.4, ligand 10 μM, metal 1 μM. How it is done: In a typical experiment, the sample solution was prepared by the following method: Apo7041 (126.1 mg, 0.50 mmol) was weighed into a 50 mL volumetric flask, and about 35 mL of a mixed solvent (0.1 M NaCl aqueous:MeOH, 1:1, v:v) was added. The mixture was sonicated for 10 min to give a clear colorless solution. The copper stock solution (atomic absorption standard, Aldrich, 6.33 mL, 0.10 mmol) was pipetted into the solution. More of the mixed solvent was added to volume and the resulting solution was vortexed to mix. The molar ratio between the total copper and the total Apo7041 was 1/5. 40 mL of the solution was transferred into a T70 titration cell by using a 10 mL digital pipet. A 6.000 N sodium hydroxide solution (300 μL) was added, and the pH (12.17) of the solution was recorded. The solution was allowed to equilibrate at 22° C. for 5 min.
The solution was then titrated against a 6.000 N hydrochloric acid solution at 22° C. by using a Mettler Toledo T70 autotitrator, until the pH reached 1.5. The volume of acid added and the pH reading were recorded. Thus, 533 measurements were taken for this experiment.
The data set of pH vs. acid volume for Cu-Apo7041 system was analyzed using Hyperquad 2000 software (version 2.1, Peter Gans, University of Leeds). The formation constants for Cu-Apo7041 system were optimized using the model shown in the first column of Table 29C. The results are shown in the second and third column.
pM^n+ is defined as −log [M(H2O)m]^n+ at physiological conditions, i.e.: pH 7.4, a ligand concentration of 10 μM, and a metal concentration of 1 μM. To calculate pM^n+ for a MLn system, βn and pKa values are needed (βn are the formation constants for M^n++n L^−⇄MLn; pKa are the equilibrium constants for L^−+n H^+⇄LHn^(n-1)+). The pM^n+ is calculated using the HySS software (HYSS© 2000 Protonic Software).

Data set [3] is described as follows: pKa determination by potentiometric titration. The data set is classed as physicochemical. How it is done:
The pKa values of ligands were determined by potentiometric titration when a ligand concentration >1×10^−2 M in water could be prepared. In a typical experiment, the sample solution (1.00×10^−2 M) was prepared by the following method: Apo7041 (125.4 mg) was weighed into a 50 mL volumetric flask, and about 40 mL of 0.1 M NaCl was added. The mixture was sonicated for 10 min to give a clear colorless solution. More of the 0.1 M NaCl was added to volume and the resulting solution was vortexed to mix. 40 mL of the solution was transferred into a T70 titration cell by using a 10 mL digital pipet A 6.000 N sodium hydroxide solution (127 μL, 1.9 equiv) was added, and the pH (11.82) of the solution was recorded. The solution was allowed to equilibrate at 22° C. for 5 min.
The solution was then titrated against a 6.000 N hydrochloric acid solution at 22° C. by using a Mettler Toledo T70 autotitrator, until the pH reached 1.5. The volume of acid added and the pH reading were recorded. Thus, 501 measurements were taken for this experiment.
The data set of pH vs. acid volume was analyzed using Hyperquad 2000 software (version 2.1, Peter Gans, University of Leeds). The pKa values were obtained using the model: L^−+H^+⇄LH (pKa1), LH+H^+⇄LH2^+, and LH2^++H^+⇄LH3^2+ (pKa3).
The pKa values of Apo7041 in the same mixed solvent were also determined by potentiometric titration using the procedure described in Example 1.

Data set [4] can be described thus: Distribution coefficient determination, D7.4 (1-octanol / K2HPO4 buffer). Format: physicochemical. Conditions: 1-octanol / K2HPO4 buffer 50 mM pH 7.4. How it is done: K2HPO4 buffer (50 mM, pH=7.4) and 1-octanol were used as the aqueous phase and the organic phase, respectively. The K2HPO4 buffer and 1-octanol were mixed, and pre-saturated with each other before use.
In a typical experiment, an aqueous solution of Apo6995 (3-hydroxy-2-methyl-1-(2,2,2-trifluoroethyl)pyridin-4(1H)-one) was prepared by weighing out 3 mg of the compound into a 10-mL test-tube. It was then mixed with K2HPO4 buffer (2 mL) and sonicated for 30 minutes with frequent vortexing. The solution was then filtered through HPLC syringe filter (4 mm PVDF syringe filter 0.45 μM) to obtain the aqueous solution.
One mL of this aqueous solution was pipetted out into another 10-mL test-tube and mixed with 1 mL of 1-octanol. The mixture was then vortexed for 1 hour. The solution was centrifuged at 2000 rpm for 10 minutes. A small amount of the lower aqueous layer was carefully pipetted out and analyzed by HPLC to obtain the peak height (HF). The distribution coefficient, D7.4, was calculated using the following equation: D7.4=(HI−HF)/HF.

[5] abbreviates: 0.1M aqueous NaCl/MeOH, 1/1, v/v.
The mark [6] stands for this setting: 0.1M aqueous NaCl/MeOH, 1/1, v/v, listed as drawing 104.
[7] abbreviates: potentiometric, 0.1 M NaCl, 22° C.
The mark [8] stands for this setting: 0.1M aqueous NaCl (Table 1, Fe3+ chelation, footnote b).

The structures appear in SMILES notation.

On to `O=c1ccn(CC(F)(F)F)c(CN2CCOCC2)c1O` [Apo7323, 3-hydroxy-2-(morpholinomethyl)-1-(2,2,2-trifluoroethyl)pyridin-4(1H)-one], for which, in data set [1], the CL stood at 33.2 mL/min/kg, the “Brain AUC_D_obs” value was 1.010 kg·µg·h/mL/mg, the “Brain Cmax_D” value was 0.218 kg·µg/mL/mg and the “Plasma AUC_D_obs” value is 1.630 kg·µg·h/mL/mg. Also, the “Plasma Cmax_D” value in data set [1] came to 0.400 kg·µg/mL/mg.
With `CN(C)C(c1c(O)c(=O)ccn1C)C(F)(F)F` (stereo not drawn) [Apo7041, 2-[1-(dimethylamino)-2,2,2-trifluoroethyl]-3-hydroxy-1-methylpyridin-4(1H)-one], in data set [2] (setting [5]), the “Log β120 (Cu2+)” value was found to be 17.3, the “Log β121 (Cu2+)” value is listed as 23.0, the “Log β122 (Cu2+)” value came to 27.9 and the “Logβ111 (Cu2+)” value is on record as “Logβ111 = 14.1”. In addition, in data set [2] (setting [6]), the “Log β120 (Cu2+)” value was “Logβ120 = 17.3”, the “Log β121 (Cu2+)” value is reported as “Logβ121 = 23.0” and the “Log β122 (Cu2+)” value is recorded as “Logβ122 = 27.9”. In data set [2], the “pCu^2+” value is recorded as “pCu^2+ = 7.7”. Also, in data set [3] (0.1 M NaCl), the “pKa1 + pKa2” value is 12.91 and the “pKa1 + pKa2 + pKa3” value is 14.57. Further, in data set [3] (setting [5]), the “pKa1 + pKa2 + pKa3” value worked out at 15.3 and the pKa3 result is given as “pKa3 = 2.0”. Also, in data set [3] (setting [6]), the pKa1 result is listed as “pKa1 = 10.1”. In data set [3] (setting [7]), the pKa1 is listed as 9.39, the pKa2 is on record as 3.52 and the pKa3 is on record as 1.66.
Regarding `CN(C)Cc1c(O)c(=O)ccn1CC(F)(F)F` [Apo7067, 2-[(dimethylamino)methyl]-3-hydroxy-1-(2,2,2-trifluoroethyl)pyridin-4(1H)-one], the D7.4 in data set [4] came to 2.82. The logD in data set [4] (read-out: Log D7.4) turned out to be 0.45.
`Cc1c(O)c(=O)c(C(N2CCOCC2)C(F)(F)F)cn1C` (stereo not drawn) [Apo7435, 3-hydroxy-1,2-dimethyl-5-(2,2,2-trifluoro-1-morpholinoethyl)pyridin-4(1H)-one]: in data set [1], the CL is 110 mL/min/kg, the “Brain AUC_D_obs” value turned out to be 0.122 kg·µg·h/mL/mg, the “Brain Cmax_D” value is 0.102 kg·µg/mL/mg and the “Plasma AUC_D_obs” value turned out to be 0.516 kg·µg·h/mL/mg. In data set [1], the “Plasma Cmax_D” value was determined as 0.312 kg·µg/mL/mg.
With `Cc1c(O)c(=O)ccn1C` [Deferiprone, 3-hydroxy-1,2-dimethylpyridin-4(1H)-one, reference compound], in data set [2] (setting [5]), the “Log β120 (Cu2+)” value was found to be 20.5, the “Logβ1 (Cu2+)” value is listed as “Logβ1 = 10.8” and the “Logβ2 (Cu2+)” value is “Logβ2 = 20.5”. Besides, the “pCu^2+” value in data set [2] is “pCu^2+ = 9.9”. Further, in data set [4], the D7.4 is reported as 0.17 and the “Log D7.4” value is on record as −0.77. Also, in data set [3] (setting [8]), the pKa1 entry is reported as “pKa1 = 9.92” and the pKa2 result was “pKa2 = 3.55”.

These data come from patent US9938240B2, “Fluorinated derivatives of 3-hydroxypyridin-4-ones” (Apotex Technologies Inc., priority 2009, dated 2018).
